Read-outs that look alike come from different tables or passages of the source.
What was measured:
TIMP2 = experiment: Fluorescence intensity (relative) of brain hippocampus, TIMP2; format: in vivo, mice; details: control = 1
Excerpt: (§1) 48 male LDLr−/− mice (8-10 weeks of age, ˜20 g) were obtained from Jackson Laboratories (stock #2207) and allowed to acclimate to the cages, room, and feeding design for 12 days. After the acclimation period mice were weighed and randomly assigned to one of six treatments. Mice were fed an isolipid (20% total fatty acids w/w), isonitrogenous, and 0.2% cholesterol (w/w) diet, which is considered atherogenic (Ain76, 58TQ TestDiet®) as a base diet. This base diet was formulated to meet or exceed all nutrient and energy requirements for a growing mouse. The treatments were added to the base diet (0.76% w/w of the total diet) and was made once at the beginning of the study, separated into weekly aliquots, stored at −80° C., allowed to thaw at 4° C. for 2 days prior to feeding, and stored at 4° C. until fed. A sample from each weekly aliquot was collected, composited, and archived for fatty acid analysis at a later date. The treatments were as follows: (1) Negative control diet, 3.5% of the total fatty acids were replaced with milk fat (the only source of fat in the base diet), (2) 3.5% of the total fatty acids were replaced with purified ethyl esters of DHA, (3) 3.5% of the total fatty acids were replaced with purified ethyl esters of DPAn3, (4) 3.5% of the total fatty acids were replaced with purified ethyl esters of EPA, (5) 3.5% of the total fatty acids were replaced with omega-3 fatty acids from Lovaza® (GlaxoSmithKline), and (6) 3.5% of the total fatty acids were replaced with omega-3 fatty acids from ΩmegaActiv® DPA 5000 (Omega Protein Inc., Houston, Tex.; Table 1). […]

TNF-α [1] = experiment: TNF-α concentration in adipose tissue of mice fed omega-3 products; format: in vivo
Excerpt: (§2) 48 male LDLr−/− mice (8-10 weeks of age, ˜20 g) were obtained from Jackson Laboratories (stock #2207) and allowed to acclimate to the cages, room, and feeding design for 12 days. After the acclimation period mice were weighed and randomly assigned to one of six treatments. Mice were fed an isolipid (20% total fatty acids w/w), isonitrogenous, and 0.2% cholesterol (w/w) diet, which is considered atherogenic (Ain76, 58TQ TestDiet®) as a base diet. This base diet was formulated to meet or exceed all nutrient and energy requirements for a growing mouse. The treatments were added to the base diet (0.76% w/w of the total diet) and was made once at the beginning of the study, separated into weekly aliquots, stored at −80° C., allowed to thaw at 4° C. for 2 days prior to feeding, and stored at 4° C. until fed. A sample from each weekly aliquot was collected, composited, and archived for fatty acid analysis at a later date. The treatments were as follows: (1) Negative control diet, 3.5% of the total fatty acids were replaced with milk fat (the only source of fat in the base diet), (2) 3.5% of the total fatty acids were replaced with purified ethyl esters of DHA, (3) 3.5% of the total fatty acids were replaced with purified ethyl esters of DPAn3, (4) 3.5% of the total fatty acids were replaced with purified ethyl esters of EPA, (5) 3.5% of the total fatty acids were replaced with omega-3 fatty acids from Lovaza® (GlaxoSmithKline), and (6) 3.5% of the total fatty acids were replaced with omega-3 fatty acids from ΩmegaActiv® DPA 5000 (Omega Protein Inc., Houston, Tex.; Table 1).
TNF-α concentration in adipose tissue of mice fed with different omega-3 products

IL-8 [2] = experiment: Fluorescence intensity (relative) of brain microvessel, IL-8; format: in vivo, mice; details: control = 1.00
Excerpt: as §1

LDLr−/− mice [3] = experiment: Serum glucose of LDLr−/− mice fed an atherogenic diet; format: in vivo; details: week 20
Excerpt: (§3) 48 male LDLr−/− mice (8-10 weeks of age, ˜20 g) were obtained from Jackson Laboratories (stock #2207) and allowed to acclimate to the cages, room, and feeding design for 12 days. After the acclimation period mice were weighed and randomly assigned to one of six treatments. Mice were fed an isolipid (20% total fatty acids w/w), isonitrogenous, and 0.2% cholesterol (w/w) diet, which is considered atherogenic (Ain76, 58TQ TestDiet®) as a base diet. This base diet was formulated to meet or exceed all nutrient and energy requirements for a growing mouse. The treatments were added to the base diet (0.76% w/w of the total diet) and was made once at the beginning of the study, separated into weekly aliquots, stored at −80° C., allowed to thaw at 4° C. for 2 days prior to feeding, and stored at 4° C. until fed. A sample from each weekly aliquot was collected, composited, and archived for fatty acid analysis at a later date. […]
(§4) Mouse body weights were recorded once weekly in conjunction with cage changes. Blood serum lipid profiles were analyzed on blood samples from the mice before (subset of 6 mice), 10 weeks, and 20 weeks relative to initiation of dietary treatments. […] Total lipid content was measured using the procedure outline by Folch, et al. (1957) J. Biol. Chem., 226:497-509, prior to cholesterol assessment. Total cholesterol, free cholesterol, and cholesterol ester were quantified as previously described (Wang, et al., 2010, Clin. Nutr., DOI: 10.1016/j.clnu.2013.04.009).
Average daily feed intake for the mice was cut into quartiles in order to assign a feed consumption class. […] Least squares means were calculated using the lsmeans package for all blood lipid profiles and a general linear hypothesis test, using glht in the multcomp package, was utilized for specified contrasts, control vs. the average of all omega-3 containing diets. […]

TNF-α [4] = experiment: Fluorescence intensity (relative) of brain hippocampus, TNF-α; format: in vivo, mice; details: control = 1
Excerpt: as §1

IL-8 [5] = experiment: Fluorescence intensity (relative) of brain hippocampus, IL-8; format: in vivo, mice; details: control = 1
Excerpt: as §1

LDLr−/− mice [6] = experiment: Lipid and cholesterol (TC, FC, CE) in aortas of LDLr−/− mice fed an atherogenic diet; format: in vivo; details: supplement 0.76% w/w of the diet
Excerpt: as §3, §4
An analysis of variance model was used in R, aov in the stats package, for estimating treatment effects on cholesterol deposition in mouse aortas. Least squares means and contrasts were analyzed as outlined above. […]

LDLr−/− mice [7] = experiment: Serum lipid profile of LDLr−/− mice fed an atherogenic diet; format: in vivo; details: week 20
Excerpt: as §2
Mouse body weights were recorded once weekly in conjunction with cage changes. Blood serum lipid profiles were analyzed on blood samples from the mice before (subset of 6 mice), 10 weeks, and 20 weeks relative to initiation of dietary treatments. Three to five days prior to the end of the study each mouse was administered an intraperitoneal injection of 1.0 mL thioglycollate broth (4.05 g/dL) to elicit peritoneal macrophages. The peritoneal cells centrifuged then cultured in RPMI 1640 (+2 mM L-glutamine, +10 mM HEPES, +1 mM sodium pyruvate, +4500 mg/L glucose, +1500 mg/L sodium bicarbonate) on tissue culture plates (size) which allowed for adhesion of the macrophages. Plates where then vigorously washed to ensure proper macrophage isolation. Macrophages were scraped off the plates and aliquotted into a glass tube for fatty acid extraction, which was then performed via a modified Folch method. The heart and aorta were isolated from each mouse and immediately frozen in liquid nitrogen for later dissection. Aortic arches were dissected from the aortic root to the abdominal aorta using a microscope. Total lipid content was measured using the procedure outline by Folch, et al. (1957) J. Biol. Chem., 226:497-509, prior to cholesterol assessment. Total cholesterol, free cholesterol, and cholesterol ester were quantified as previously described (Wang, et al., 2010, Clin. Nutr., DOI: 10.1016/j.clnu.2013.04.009).
Average daily feed intake for the mice was cut into quartiles in order to assign a feed consumption class. A linear mixed effects model was used in R, lme in the nlme package, for estimating treatment effects on blood lipid profiles in mice. The fixed effects fit were treatment, and week of study, animal nested within treatment was fit as a random effect. Least squares means were calculated using the lsmeans package for all blood lipid profiles and a general linear hypothesis test, using glht in the multcomp package, was utilized for specified contrasts, control vs. the average of all omega-3 containing diets. Because Lovaza® is composed of high and almost equal levels of EPA and DHA we also contrasted the diet supplemented with Lovaza® to the average of the diets supplemented with EPA and DHA alone. Pairwise comparisons were made between time of blood analysis, and between treatments at each individual time frame.

MCP-1 = experiment: Fluorescence intensity (relative) of brain microvessel, MCP-1; format: in vivo, mice; details: control = 1.00
Excerpt: as §1

THP-1 cells [8] = experiment: Cytokine release (TNF-α, MCP-1, IL-6) by LPS-stimulated THP-1 macrophages after fatty acid incubation; format: cell-based; details: compared to control macrophages; for Cytokine release with increasing concentration of fatty acids: 50 to 100 μM; for Inflammatory cytokine release (TNF-α, MCP-1, IL-6): 24 h fatty acid (50 and 100 μM), then 24 h LPS
Procedure: (§5) THP-1 cells were maintained in RPMI 1640+2 mM L-Glutamine, 10 mM HEPES, 1 mM sodium pyruvate, 4500 mg/L glucose, and 1500 mg/L sodium bicarbonate; supplemented with 3.5 μL/L of 2-mercaptoethanol and 10% fetal bovine serum (FBS). Cell line was maintained in 75 cm^2 filtered cap flasks in a 37° C. incubator with 5% CO2. THP-1 cells were seeded in 24 well plates at 5×10^5 cells/mL using 600 μL/well and allowed to differentiate into macrophages (MΦ) for 72 h with phorbol 12-myristate 13-acetate (PMA) at a final concentration of 50 ng/mL.
Experiment 1: Prior to incubation with individual fatty acids, the cells were starved for 8 h in a 2% lipo-free FBS RPMI medium. Individual fatty acids were added in duplicate into the 24 well plate at two concentrations, 50 μM and 100 μM. Every assay was cultured in three runs with duplicates in each run pooled. After incubation for 24 h with fatty acids the MΦ were scraped off the plates and fatty acids were isolated as described in the ‘Animal Tests’ portion of this Example. The fatty acid profiles of the MΦ were determined as previously described (Wang, et al., 2010, Clin. Nutr., DOI: 10.1016/j.clnu.2013.04.009).
(§6) Experiment 2: Previously differentiated MΦ were incubated with fatty acids as described in ‘Experiment 1’ for 24 hours. At the 24 h time point the cells were then stimulated with lipopolysaccharide from E. coli 0111:B4 for another 24 hours. The plates were centrifuged at 1200×g for 5 minutes and supernatant was then collected and analyzed for cytokines. The MΦ were scraped off the plates and fatty acids were isolated as described in the ‘Animal Portion’. The fatty acid profiles of the MΦ were determined as previously described (Wang, et al., 2010, Clin. Nutr., DOI: 10.1016/j.clnu.2013.04.009).
A linear mixed effects model was used in R, lme in the nlme package, for estimating treatment effects on cytokine production in LPS stimulated THP-1 cells. The fixed effects fit were treatment, FA concentration, and when significant LPS concentration was fit as a covariate, the plate cells were cultured on nested within run was fit as a random effect. Least squares means were analyzed as outlined above and pairwise comparisons were made between treatments for FA concentration, or where significant LPS concentration.
The objective of this study was to determine if docosapentaenoic acid n-3 (DPAn3) enrichment of macrophages (MΦ) changed their inflammatory response relative to saturated (S), mono-unsaturated (MU), and other poly-unsaturated (PU) fatty acids (FA). Differentiated THP-1 cells were incubated with one of 11 FA (50 and 100 μM) of varying degrees of unsaturation or no FA for 24 h prior to 24 h of stimulation with lipopolysaccharide from E. coli. Fatty acids were collected from MΦ without stimulation to determine the fatty acid profiles. Media was collected from MΦ post-stimulation and probed for prostaglandin E2, and cytokines, including tumor necrosis factor-α, monocyte chemoattractant protein-1, and interleukin-6. Prostaglandin E2 production was greater (P<0.05) for AA than all other FA, and omega-3 PUFA decreased (P<0.01) PGE2 compared to n6 PUFA and all other FA.

THP-1 cells [9] = experiment: Prostaglandin E2 production by LPS-stimulated THP-1 macrophages after fatty acid incubation; format: cell-based; details: 24 h fatty acid (50 and 100 μM), then 24 h LPS; compared to other FA
Procedure: as §5, §6
The objective of this study was to determine if docosapentaenoic acid n-3 (DPAn3) enrichment of macrophages (MΦ) changed their inflammatory response relative to saturated (S), mono-unsaturated (MU), and other poly-unsaturated (PU) fatty acids (FA). […]

[10] = tested on: murine peritoneal macrophages; details: cited from earlier work

| Structure (SMILES) | TIMP2 fluorescence intensity (relative) (TIMP2) | TNF-α Concentration (TNF-α [1]) [pg/μg protein] | IL-8 fluorescence intensity (relative) (IL-8 [2]) | Glucose concentration in serum (LDLr−/− mice [3]) [mg/dL] | TNF-α fluorescence intensity (relative) (TNF-α [4]) | IL-8 fluorescence intensity (relative) (IL-8 [5]) | Aorta lipid (LDLr−/− mice [6]) [%] | Serum LDL cholesterol (LDLr−/− mice [7]) [mg/dL] | Serum total cholesterol (LDLr−/− mice [7]) [mg/dL] | MCP-1 fluorescence intensity (relative) (MCP-1) | Cytokine release with increasing concentration of fatty acids (THP-1 cells [8]) | Inflammatory cytokine release (TNF-α, MCP-1, IL-6) (THP-1 cells [8]) | Prostaglandin E2 production (THP-1 cells [9]) | TNF-α production ([10]; AA at 2-5 μM) | TNF-α production ([10]; AA at concentrations as low as 1 μM) |
| --- | --- | --- | --- | --- | --- | --- | --- | --- | --- | --- | --- | --- | --- | --- | --- |
| CC/C=C\C/C=C\C/C=C\C/C=C\C/C=C\CCCCCC(=O)O [DPA, docosapentaenoic acid] | 0.17 | 0.41 | 0.96 | 166.23 | 0.28 | 0.70 | 29.52 | 563.45 | 692.98 | 0.92 |  |  |  |  |  |
| CCCCCCCCCCCCCCCCCC(=O)O [C18:0] |  |  |  |  |  |  |  |  |  |  | did not change, or increased | did not change |  |  |  |
| CCCCCCCC/C=C\CCCCCCCC(=O)O [oleic acid] |  |  |  |  |  |  |  |  |  |  | did not change, or increased | did not change |  |  |  |
| CCCCCCCCCCCCCCCC(=O)O [C16:0] |  |  |  |  |  |  |  |  |  |  | did not change, or increased | did not change |  |  |  |
| CC/C=C\C/C=C\C/C=C\C/C=C\C/C=C\C/C=C\CCC(=O)O [DHA, docosahexaenoic acid] | 0.23 | 0.82 | 0.86 | 172.58 | 0.29 | 0.46 | 36.38 | 495.51 | 726.86 | 0.93 |  |  |  |  |  |
| CCCCC/C=C\C/C=C\C/C=C\C/C=C\CCCC(=O)O [AA, arachidonic acid] |  |  |  |  |  |  |  |  |  |  |  | decreased | greater | completely inhibited | decreased |
| CC/C=C\C/C=C\C/C=C\C/C=C\C/C=C\CCCC(=O)O [EPA, eicosapentaenoic acid] | 0.63 | 0.58 | 0.93 | 198.65 | 0.31 | 0.72 | 29.93 | 562.07 | 663.37 | 0.96 |  |  |  |  |  |
